Experimental data published in ChEMBL document CHEMBL1157222, “Anxiolytic effect of natural galphimines from Galphimia glauca and their chemical derivatives” (2006).
Active and inactive are the calls of the source. No cut-off for these calls is given here.

Assays:
Mus musculus [1] = assay: Anxiolytic effect in ICR mouse assessed as […] in time spent on open arm at 2.0 mg/kg, ip administered 1 hr before by elevated plus-maze test; assay type: functional, organism-based; design: dose 2 mg/kg
Mus musculus [2] = assay: Anxiolytic effect in ICR mouse assessed as […] in entries of open arm at 2.0 mg/kg, ip administered 1 hr before by elevated plus-maze test; assay type: functional, organism-based; design: dose 2 mg/kg
Mus musculus [3] = assay: Anxiolytic effect in ICR mouse assessed as increase in time spent on open arm at 15 mg/kg, ip administered 1 hr before by elevated plus-maze test; assay type: functional; conditions: route intraperitoneal
Mus musculus [4] = assay: Anxiolytic effect in ICR mouse assessed as increase in number of entries on open arm at 15 mg/kg, ip administered 1 hr before by elevated plus-maze test; assay type: functional; conditions: route intraperitoneal
Mus musculus [5] = assay: Anxiolytic effect in ICR mouse assessed as increase in time spent on open arm at 1.0 mg/kg, ip administered 1 hr before by elevated plus-maze test; assay type: functional, organism-based; design: dose 1 mg/kg
Mus musculus [6] = assay: Anxiolytic effect in ICR mouse assessed as increase in entries of open arm at 1.0 mg/kg, ip administered 1 hr before by elevated plus-maze test; assay type: functional, organism-based; design: dose 1 mg/kg

SMILES: C=C(C)[C@@H]1[C@H]2OC(=O)[C@@H]1[C@]1(O)C[C@H]3OC34C(=O)O[C@H]2[C@@]41C.CC(C)(O)[C@@H]1[C@H]2OC(=O)[C@@H]1[C@]1(O)C[C@H]3OC34C(=O)O[C@H]2[C@@]41C (stereo not given in full)
- Activity (Mus musculus [1]): Active
- Activity (Mus musculus [2]): Active

SMILES: COC(=O)[C@@]12CC[C@@]3(C)[C@@H]4C=CC(=O)OC[C@]4([C@@H](C)O)[C@@H](O)[C@@H](O)[C@@H]3[C@@]1(C)CC[C@@]1(C)CC=C(C)C[C@]12O [GALPHIMINE A]
- Activity (Mus musculus [3]): 68.3%
- Activity (Mus musculus [4]): 76.8%

SMILES: CN1C(=O)CN=C(c2ccccc2)c2cc(Cl)ccc21
- Activity (Mus musculus [5]): Active
- Activity (Mus musculus [6]): Active

SMILES: COC(=O)CC[C@H]1[C@]2(C)CC[C@@]3(C(=O)OC)[C@]4(O)CC(C)=CC[C@]4(C)CC[C@]3(C)[C@H]2[C@H](O)[C@H](O)[C@]1(CO)[C@@H](C)O
- Activity (Mus musculus [3]): 76.8%
- Activity (Mus musculus [4]): 61.8%

SMILES: COC(=O)[C@@]12CC[C@@]3(C)[C@@H]4C=CC(=O)OC[C@]4([C@@H](C)O)C[C@@H](O)[C@@H]3[C@@]1(C)CC[C@@]1(C)CC=C(C)C[C@]12O [GALPHIMINE B]
- Activity (Mus musculus [3]): 76.3%
- Activity (Mus musculus [4]): 72.5%
